Results on 4 molecules are retold here after US20030158199A1, “Novel compounds for inhibition of Tie-2” (KYLIX, B.V., priority 2002, published 2003).

The target in one test is T1, c-Met (Homo sapiens, UniProt P08581).
T1 construct: GST-cMet (aa956-1390); GST (N); purchased ProQuinase, Freiburg; host or cells: baculovirus infected insect cells Sf9
In words: RTK ELISA, recombinant kinase domain, c-Met. Type of test: biochemical. Conditions: GST-cMet (aa956-1390) expressed in baculovirus infected insect cells. On the procedure:
(§1) Follwing IC50 values were determined in the RTK ELISA using recombinant kinase domains of receptor tyrosine kinases which were expressed in baculovirus infected insect cells.
(§2) Receptor Tyrosine Kinase Assay
(§3) The following in vitro assays are used to determine the ability of different compounds to inhibit the transfer of phosphate groups onto tyrosine residues of downstream substrates. The level of phosphorylation is measured by a monoclonal antibody which is specific for phosphorylated tyrosine residues in an enzyme-linked immunosorbent assay (ELISA).
(§4) The following recombinant kinases were expressed in baculovirus infected insect cells Sf9 and purchased from ProQuinase, Freiburg:
(§5) If not otherwise indicated all steps are performed at room temperature.
(§6) 1.) Coat wells of ELISA plate with […] Poly-Glu-Tyr 4:1 in 100 μl/well PBS buffer (137 mM NaCl, 3 mM KCl, 1.5 mM KH2PO4, 8.2 mM Na2HPO4) overnight at 4° C.
(§7) 2.) Wash 2 times for 5 min each with PBS+0.05% Tween20 […]
(§8) a) Add 5-30 ng/well kinase in 50 μl/well kinase buffer (100 mM HEPES pH 7.4, 100 mM NaCl, 0.1 mM Na3VO4) b) Add 25 μl/well compound (50 and 5 μM) in 5% DMSO c) Add 25 μl/well 100 μM ATP in 40 mM MnCl2
(§9) 4.) Wash 3 times for 5 min each with PBS+0.05% Tween20
(§10) 5.) Add anti phosphotyrosin antibody/HRP 1:10.000 in 100 μl/well PBS+0.05% Tween+0.1 BSA, incubate for 1 h
(§11) 6.) Wash 3 times for 5 min each with PBS+0.05% Tween20
(§12) 7.) Chemoluminescence reaction: a.) Premix 25 μl/well BM CLS Solution 1 with 0.25 μl/well BM CLS Solution 2 b.) Preincubate for 15 min […]
(§13) d.) Add 50 μl/well substrate solution to microtiter wells e.) Incubate for at least 1 min
(§14) 8.) Detect chemoluminescence signals in Tecan Genios reader
Background: ELISA stands for enzyme-linked immunosorbent assay.

The next test deals with T2, KDR (Homo sapiens, UniProt P35968).
T2 construct: GST-KDR (aa807-1356); GST (N); purchased ProQuinase, Freiburg; host or cells: baculovirus infected insect cells Sf9
In words: RTK ELISA, recombinant kinase domain, KDR. Type of test: biochemical. Conditions: GST-KDR (aa807-1356) expressed in baculovirus infected insect cells. On the procedure:
as §1, §2, §3, §4, §5, §6, §7, §8, §9, §10, §11, §12, §13, §14

A further test deals with T3, Tie-2 (Homo sapiens, UniProt Q02763).
T3 construct: GST-Tie2/Tek (aa 771-1124); GST (N); purchased ProQuinase, Freiburg; host or cells: baculovirus infected insect cells Sf9
In words: RTK ELISA, recombinant kinase domain, Tie-2. Conditions: GST-Tie2/Tek (aa 771-1124) expressed in baculovirus infected insect cells. Type of test: biochemical. The procedure:
as §1, §2, §3, §4, §5, §6, §7, §8, §9, §10, §11, §12, §13, §14

The next test relates to tumor metastasis. Conditions: delivered at the time of surgical excision of primary tumors, mouse model; cited from earlier work.

Structures can show the parent of a compound that is named as a salt.

T1 sequence (P08581 956-1390): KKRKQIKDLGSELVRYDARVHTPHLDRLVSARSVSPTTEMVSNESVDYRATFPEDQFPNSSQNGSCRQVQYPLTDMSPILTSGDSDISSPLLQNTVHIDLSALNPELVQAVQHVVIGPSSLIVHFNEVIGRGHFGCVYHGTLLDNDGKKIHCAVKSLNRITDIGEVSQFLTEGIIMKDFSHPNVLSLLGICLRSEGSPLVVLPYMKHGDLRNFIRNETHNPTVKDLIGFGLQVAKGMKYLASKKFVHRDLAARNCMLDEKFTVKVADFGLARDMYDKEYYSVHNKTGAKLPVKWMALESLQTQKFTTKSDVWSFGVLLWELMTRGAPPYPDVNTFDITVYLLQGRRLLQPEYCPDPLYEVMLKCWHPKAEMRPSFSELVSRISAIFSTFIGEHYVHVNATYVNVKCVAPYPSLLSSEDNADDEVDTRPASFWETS
T3 sequence (Q02763 771-1124): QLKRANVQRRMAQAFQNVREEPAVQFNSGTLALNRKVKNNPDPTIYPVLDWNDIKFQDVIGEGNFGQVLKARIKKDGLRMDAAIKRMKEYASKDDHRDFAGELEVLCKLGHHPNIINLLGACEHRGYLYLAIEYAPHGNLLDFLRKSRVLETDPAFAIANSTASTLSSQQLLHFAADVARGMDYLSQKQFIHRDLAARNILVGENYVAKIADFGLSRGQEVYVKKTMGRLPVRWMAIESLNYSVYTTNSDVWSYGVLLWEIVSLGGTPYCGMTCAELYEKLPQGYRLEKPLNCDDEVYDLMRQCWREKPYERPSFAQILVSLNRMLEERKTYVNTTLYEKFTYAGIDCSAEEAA
T2 sequence (P35968 807-1356): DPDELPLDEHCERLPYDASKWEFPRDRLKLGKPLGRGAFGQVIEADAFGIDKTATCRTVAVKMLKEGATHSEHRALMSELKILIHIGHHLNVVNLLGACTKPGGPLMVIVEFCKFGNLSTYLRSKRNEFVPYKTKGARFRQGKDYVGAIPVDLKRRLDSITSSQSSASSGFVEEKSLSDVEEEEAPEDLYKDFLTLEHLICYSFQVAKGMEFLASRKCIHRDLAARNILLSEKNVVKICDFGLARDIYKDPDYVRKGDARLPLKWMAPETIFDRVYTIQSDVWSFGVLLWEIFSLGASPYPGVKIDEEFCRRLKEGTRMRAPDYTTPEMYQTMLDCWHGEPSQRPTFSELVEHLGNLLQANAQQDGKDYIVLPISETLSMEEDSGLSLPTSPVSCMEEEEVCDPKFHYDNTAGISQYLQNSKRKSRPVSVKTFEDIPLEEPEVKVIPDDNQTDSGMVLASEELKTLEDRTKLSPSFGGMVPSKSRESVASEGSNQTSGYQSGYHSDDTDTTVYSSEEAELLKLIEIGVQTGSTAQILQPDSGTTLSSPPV

Regarding `c1ccc(CCNc2nc(-c3ccccn3)cs2)cc1` [Number 35, phenylethyl-(4-pyridin-2-yl-thiazol-2-yl)-amine Hydrobromide], the IC50 (usually the midpoint of a concentration-inhibition curve) at c-Met turned out to be 2000 nM; at KDR, 1000 nM; at Tie-2, 1000 nM.
With `CNc1nc(-c2ccc(-c3ccccn3)s2)cs1` [Number 36, methyl-[4-(5-pyridin-2-yl-thiophen-2-yl)-thiazol-2-yl]-amine Hydrobromide], the values for the half-inhibitory concentration (IC50) on c-Met, at KDR and at Tie-2 were > 50000 nM, > 10000 nM and > 20000 nM, respectively.
On the same counts, the results for `c1ccc(-c2ccc(-c3csc(Nc4cccnc4)n3)s2)nc1` [Number 37, pyridin-3-yl-[(4-(5-pyridin-2-yl-thiophen-2-yl)-thiazol-2-yl]-amine Hydrobromide] are > 50000 nM, > 50000 nM and 2500 nM.

B1: Ad-ExTek: a soluble adenoviral expressed extracellular domain of Tie-2 (protein, UniProt Q02763 23-748, looked up)
extracellular domain: AMDLILINSLPLVSDAETSLTCIASGWRPHEPITIGRDFEALMNQHQDPLEVTQDVTREWAKKVVWKREKASKINGAYFCEGRVRGEAIRIRTMKMRQQASFLPATLTMTVDKGDNVNISFKKVLIKEEDAVIYKNGSFIHSVPRHEVPDILEVHLPHAQPQDAGVYSARYIGGNLFTSAFTRLIVRRCEAQKWGPECNHLCTACMNNGVCHEDTGECICPPGFMGRTCEKACELHTFGRTCKERCSGQEGCKSYVFCLPDPYGCSCATGWKGLQCNEACHPGFYGPDCKLRCSCNNGEMCDRFQGCLCSPGWQGLQCEREGIQRMTPKIVDLPDHIEVNSGKFNPICKASGWPLPTNEEMTLVKPDGTVLHPKDFNHTDHFSVAIFTIHRILPPDSGVWVCSVNTVAGMVEKPFNISVKVLPKPLNAPNVIDTGHNFAVINISSEPYFGDGPIKSKKLLYKPVNHYEAWQHIQVTNEIVTLNYLEPRTEYELCVQLVRRGEGGEGHPGPVRRFTTASIGLPPPRGLNLLPKSQTTLNLTWQPIFPSSEDDFYVEVERRSVQKSDQQNIKVPGNLTSVLLNNLHPREQYVVRARVNTKAQGEWSEDLTAWTLSDILPPQPENIKISNITHSSAVISWTILDGYSISSITIRYKVQGKNEDQHVDVKIKNATITQYQLKGLEPETAYQVDIFAENNIGSSNPAFSHELVTLPESQAPADLGGGKMLL
modifications: extracellular domain
In the case of B1, the tumor metastasis result with tumor metastasis was “inhibited tumor metastasis”.
